Measurements: ChEMBL document CHEMBL5120892, “Identification and Characterization of Natural and Semisynthetic Quinones as Aurora Kinase Inhibitors” (J Nat Prod, 2022)
Active and inactive are the calls of the source. The rule behind the calls is not given here.

Key:
HCC1954 = test: Antiproliferative activity against human HCC1954 cells measured after 72 hrs by SRB assay; format: functional
HCT-116 [1] = test: Antiproliferative activity against human HCT-116 cells measured after 72 hrs by SRB assay; format: functional
MCF7 = test: Antiproliferative activity against human MCF7 cells measured after 72 hrs by SRB assay; format: functional
MOLM-13 = test: Antiproliferative activity against human MOLM-13 cells measured after 72 hrs by SRB assay; format: functional
MV4-11 = test: Antiproliferative activity against human MV4-11 cells measured after 72 hrs by SRB assay; format: functional
K562 = test: Antiproliferative activity against human K562 cells measured after 72 hrs by SRB assay; format: functional
BT-549 = test: Antiproliferative activity against human BT-549 cells measured after 72 hrs by SRB assay; format: functional
CAL-51 = test: Antiproliferative activity against human CAL-51 cells measured after 72 hrs by SRB assay; format: functional
[2] = biological target: T1, Aurora kinase A (Homo sapiens) (UniProt O14965); test: Inhibition of Aurora A (122 to 403 residues) (unknown origin) expressed in Escherichia coli Rosetta 2(DE3) assessed as reduction in TACC3 phosphorylation at Ser 558 residue at 25 uM using TACC3 (519 to 838 residues) as substrate measured after 30 mins by Western blot analysis
T1 sequence (whole entry): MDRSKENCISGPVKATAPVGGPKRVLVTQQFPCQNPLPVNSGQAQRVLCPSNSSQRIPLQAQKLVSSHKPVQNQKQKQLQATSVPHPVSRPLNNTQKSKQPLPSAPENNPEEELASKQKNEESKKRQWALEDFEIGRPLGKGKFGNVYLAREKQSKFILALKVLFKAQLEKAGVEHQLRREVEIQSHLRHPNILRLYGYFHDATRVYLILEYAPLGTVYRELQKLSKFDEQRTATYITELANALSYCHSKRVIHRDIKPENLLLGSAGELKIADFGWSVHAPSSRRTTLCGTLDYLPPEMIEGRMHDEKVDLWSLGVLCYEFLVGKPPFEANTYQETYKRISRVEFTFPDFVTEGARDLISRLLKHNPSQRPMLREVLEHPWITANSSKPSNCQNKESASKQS

Aurora kinase A [3] = biological target: T2, Aurora kinase A (Homo sapiens, UniProt O14965); test: Inhibition of Aurora A (unknown origin)
T2 sequence (O14965 whole entry): T1 sequence (whole entry)

Aurora kinase B [4] = biological target: T3, Aurora kinase B (Homo sapiens, UniProt Q96GD4); test: Inhibition of Aurora B (unknown origin)
T3 sequence (Q96GD4 whole entry): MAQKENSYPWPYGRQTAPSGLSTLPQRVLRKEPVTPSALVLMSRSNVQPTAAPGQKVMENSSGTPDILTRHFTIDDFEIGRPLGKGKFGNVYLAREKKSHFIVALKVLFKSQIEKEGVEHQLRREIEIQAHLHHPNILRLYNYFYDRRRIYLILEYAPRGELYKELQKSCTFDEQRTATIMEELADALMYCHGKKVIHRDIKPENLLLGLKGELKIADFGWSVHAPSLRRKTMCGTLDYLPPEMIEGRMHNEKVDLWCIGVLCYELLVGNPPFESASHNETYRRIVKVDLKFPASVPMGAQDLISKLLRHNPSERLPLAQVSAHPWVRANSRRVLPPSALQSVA

Homo sapiens [5] = species on record: Homo sapiens; test: Selectivity ratio of IC50 for inhibition of Aurora B (unknown origin) to IC50 for inhibition of Aurora A (unknown origin)
Aurora kinase A [6] = biological target: T2, Aurora kinase A; test: Inhibition of Aurora A (122 to 403 residues) (unknown origin) expressed in Escherichia coli Rosetta 2(DE3) assessed as reduction in TACC3 phosphorylation at Ser 558 residue using TACC3 (519 to 838 residues) as substrate measured after 30 mins by Western blot analysis
Homo sapiens [7] = species on record: Homo sapiens; test: Selectivity ratio of IC50 for inhibition of Aurora B (unknown origin) to IC50 for inhibition of Aurora A (unknown origin) expressed in Escherichia coli Rosetta 2(DE3)
[8] = biological target: T1, Aurora kinase A (Homo sapiens); test: Inhibition of Aurora A in human HCT-116 cells using TACC3 as substrate measured after 2 hrs by Western blot analysis; format: cell-based; conditions: dose 1.56-50 µM, DDE = dose-dependent effect
Aurora kinase B [9] = biological target: T3, Aurora kinase B; test: Inhibition of Aurora B in human HCT-116 cells using histone H3 as substrate measured after 2 hrs by Western blot analysis; format: cell-based
[10] = biological target: T1, Aurora kinase A (Homo sapiens); test: Binding affinity to Aurora A (unknown origin) expressed in Escherichia coli Rosetta 2(DE3) at 1 mM by STD NMR analysis
A549 [11] = test: Induction of abnormal mitosis in human A549 cells assessed as formation of aberrant spindle assembly at 3 to 6 uM measured after 24 hrs by DAPI staining based immunofluorescence assay; format: functional, cell-based; conditions: dose 3-6 µM
A549 [12] = test: Induction of abnormal mitosis in human A549 cells assessed as formation of single spindle pole at 3 to 6 uM measured after 24 hrs by CDK5Rap2 staining based immunofluorescence assay; format: functional, cell-based; conditions: dose 3-6 µM
A549 [13] = test: Induction of abnormal mitosis in human A549 cells assessed as formation of misaligned chromosome at 3 to 6 uM measured after 24 hrs by DAPI staining based immunofluorescence assay; format: functional, cell-based; conditions: dose 3-6 µM
A549 [14] = test: Induction of abnormal mitosis in human A549 cells assessed as increase in abrogated mitotic cells at 3 to 6 uM measured after 24 hrs by DAPI staining based immunofluorescence assay; format: functional, cell-based; conditions: dose 3-6 µM
HCT-116 [15] = test: Induction of apoptosis in human HCT-116 cells assessed as increase in cleaved PARP expression at 1.25 to 5 uM measured after 24 hrs by Western blot analysis; format: functional, cell-based; conditions: dose 1.25-5 µM
HCT-116 [16] = test: Induction of apoptosis in human HCT-116 cells assessed as early apoptotic cells at 2.5 uM measured after 24 hrs by Annexin V-FITC/propidium iodide staining based flow cytometry (reference value: 2.92%); format: functional
HCT-116 [17] = test: Induction of apoptosis in human HCT-116 cells assessed as late apoptotic cells at 2.5 uM measured after 24 hrs by Annexin V-FITC/propidium iodide staining based flow cytometry (reference value: 0.02%); format: functional
HCT-116 [18] = test: Induction of apoptosis in human HCT-116 cells assessed as early apoptotic cells at 5 uM measured after 24 hrs by Annexin V-FITC/propidium iodide staining based flow cytometry (reference value: 2.92%); format: functional
HCT-116 [19] = test: Induction of apoptosis in human HCT-116 cells assessed as late apoptotic cells at 5 uM measured after 24 hrs by Annexin V-FITC/propidium iodide staining based flow cytometry (reference value: 0.02%); format: functional

CC=CCC1=C(O)C(=O)c2ccccc2C1=O
GI50 (HCC1954): > 100000 nM | GI50 (HCT-116 [1]): 41.5 µM | GI50 (MCF7): > 100 µM | GI50 (MOLM-13): > 100 µM | GI50 (MV4-11): 79.1 µM | GI50 (K562): > 100 µM | GI50 (BT-549): 47 µM | GI50 (CAL-51): 54100 nM

O=C1C=CC(=O)c2c(O)cccc21 [JUGLONE]
inhibition [2]: Active | IC50 (Aurora kinase A [3]): 50 nM | IC50 (Aurora kinase B [4]): 620 nM | Ratio IC50 (Homo sapiens [5]): 12.4 | GI50 (HCC1954): 6440 nM | GI50 (HCT-116 [1]): 4.2 µM | GI50 (MCF7): 32.6 µM | GI50 (MOLM-13): 21.9 µM | GI50 (MV4-11): 0.06 µM | GI50 (K562): > 100 µM | GI50 (BT-549): > 100 µM | GI50 (CAL-51): > 100000 nM

CC1=CC(=O)c2cccc(O)c2C1=O
GI50 (HCC1954): 340 nM | GI50 (HCT-116 [1]): 0.46 µM | GI50 (MCF7): 1.4 µM | GI50 (MOLM-13): 4.1 µM | GI50 (MV4-11): 26.5 µM | GI50 (K562): 1.3 µM | GI50 (BT-549): 2.7 µM | GI50 (CAL-51): 2500 nM

O=C1C=C(Cl)C(=O)c2c(O)cccc21
inhibition [2]: Active | IC50 (Aurora kinase A [3]): 150 nM | IC50 (Aurora kinase B [4]): 1800 nM | Ratio IC50 (Homo sapiens [5]): 12 | GI50 (HCC1954): 990 nM | GI50 (HCT-116 [1]): 4.1 µM | GI50 (MCF7): 15.6 µM | GI50 (MOLM-13): 1.7 µM | GI50 (MV4-11): 0.18 µM | GI50 (K562): 3.2 µM | GI50 (BT-549): 9.3 µM | GI50 (CAL-51): 12700 nM

COC(=O)/C=C(/CC1=C(CCC(=O)CC2(C)OCCO2)C(=O)c2ccccc2C1=O)OC
GI50 (HCC1954): 19100 nM | GI50 (HCT-116 [1]): 21.5 µM | GI50 (MCF7): 28.3 µM | GI50 (MOLM-13): 16.8 µM | GI50 (MV4-11): 43.1 µM | GI50 (K562): 9.7 µM | GI50 (BT-549): 24 µM | GI50 (CAL-51): 16300 nM

CC1(C)CCC2=C(O1)c1ccccc1C(=O)C2=O [LAPACHONE]
GI50 (HCC1954): 31800 nM | GI50 (HCT-116 [1]): 12.9 µM | GI50 (MCF7): 12.2 µM | GI50 (MOLM-13): 34.5 µM | GI50 (MV4-11): 70.1 µM | GI50 (K562): 41 µM | GI50 (BT-549): 11.4 µM | GI50 (CAL-51): 8300 nM

CC1=CC(=O)c2c(O)cc(C)c(C(=O)C(Cl)Cl)c2C1=O
GI50 (HCC1954): 1600 nM | GI50 (HCT-116 [1]): 4.3 µM | GI50 (MCF7): 25.8 µM | GI50 (MOLM-13): 3.7 µM | GI50 (MV4-11): 0.86 µM | GI50 (K562): 3.7 µM | GI50 (BT-549): 8.5 µM | GI50 (CAL-51): 1900 nM

O=C1C=CC(=O)c2c(O)ccc(O)c21 [NAPHTHAZALIN]
inhibition [2]: Active | IC50 (Aurora kinase B [4]): 350 nM | IC50 (Aurora kinase A [6]): 90 nM | Ratio IC50 (Homo sapiens [7]): 3.89 | inhibition [8]: Dde | inhibition (Aurora kinase B [9]): Active | GI50 (HCC1954): 490 nM | GI50 (HCT-116 [1]): 0.16 µM | GI50 (MCF7): 0.43 µM | GI50 (MOLM-13): 0.28 µM | GI50 (MV4-11): 0.19 µM | GI50 (K562): 1.7 µM | GI50 (BT-549): 0.43 µM | GI50 (CAL-51): 560 nM | Activity [10]: Active | Activity (A549 [11]): Active | Activity (A549 [12]): Active | Activity (A549 [13]): Active | Activity (A549 [14]): Active | Activity (HCT-116 [15]): Active | Activity (HCT-116 [16]): 6.85% | Activity (HCT-116 [17]): 3.78% | Activity (HCT-116 [18]): 6.36% | Activity (HCT-116 [19]): 21.56%

O=C1c2ccccc2C(=O)c2c(O)c(CCl)cc(O)c21
IC50 (Aurora kinase A [3]): 120 nM | IC50 (Aurora kinase B [4]): 410 nM | Ratio IC50 (Homo sapiens [5]): 3.42 | GI50 (HCC1954): 610 nM | GI50 (HCT-116 [1]): 0.22 µM | GI50 (MCF7): 0.59 µM | GI50 (MOLM-13): 3.7 µM | GI50 (MV4-11): 6.3 µM | GI50 (K562): 2.8 µM | GI50 (BT-549): 0.4 µM | GI50 (CAL-51): 150 nM | Activity [10]: Active | Activity (A549 [11]): Active | Activity (A549 [12]): Active | Activity (A549 [13]): Active | Activity (A549 [14]): Active | Activity (HCT-116 [15]): Active | Activity (HCT-116 [16]): 11.27% | Activity (HCT-116 [17]): 8.31% | Activity (HCT-116 [18]): 17.6% | Activity (HCT-116 [19]): 53.93%

COc1ccc2c(c1)C(=O)C=CC2=O
GI50 (HCC1954): 2200 nM | GI50 (HCT-116 [1]): 8.3 µM | GI50 (MCF7): 28.9 µM | GI50 (MOLM-13): 4.1 µM | GI50 (MV4-11): 4.3 µM | GI50 (K562): 2.9 µM | GI50 (BT-549): 34 µM | GI50 (CAL-51): 2800 nM

CC1=C(Br)C(=O)c2ccccc2C1=O
inhibition [2]: Active | IC50 (Aurora kinase A [3]): 90 nM | IC50 (Aurora kinase B [4]): 960 nM | Ratio IC50 (Homo sapiens [5]): 10.7 | GI50 (HCC1954): 1400 nM | GI50 (HCT-116 [1]): 3.4 µM | GI50 (MCF7): 19.1 µM | GI50 (MOLM-13): < 0.01 µM | GI50 (MV4-11): 3.3 µM | GI50 (K562): 3.4 µM | GI50 (BT-549): 4.9 µM | GI50 (CAL-51): 1500 nM
